Assay results: PubChem BioAssay AID330 (DTP/NCI, 2004)
“And” between values parts separate entries of the source, which are not always exact repeats. Equal entries are not always repeated. Inconclusive results and toxic doses are left out. Peptide text beside a SMILES is read from it.

System: P388 leukemia ip, CD2F1 mice, survival T/C
Test: NCI In Vivo Anticancer Drug Screen. Data for tumor model P388 Leukemia (intraperitoneal) in CD2F1 (CDF1) mice
Settings: endpoint: median survival time, higher = longer survival
Summary of the method: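 Mice carrying the transplanted tumor received test compound or vehicle. Survival was recorded in each group, and the value is the treated-group measurement divided by that of the vehicle-treated control group.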

[1] = dose: 6.25 mg/kg/injection, schedule: Q01DX009 (ip), vehicle: saline with Tween-80
[2] = dose: 12.5 mg/kg/injection, schedule: Q01DX009 (ip), vehicle: saline with Tween-80
[3] = dose: 25.0 mg/kg/injection, schedule: Q01DX009 (ip), vehicle: saline with Tween-80
[4] = dose: 50.0 mg/kg/injection, schedule: Q01DX009 (ip), vehicle: saline with Tween-80
[5] = dose: 60.0 mg/kg/injection, schedule: Q01DX005 (ip), vehicle: saline with Tween-80
[6] = dose: 120.0 mg/kg/injection, schedule: Q01DX005 (ip), vehicle: saline with Tween-80
[7] = dose: 50.0 mg/kg/injection, schedule: Q01DX005 (ip), vehicle: saline with Tween-80
[8] = dose: 100.0 mg/kg/injection, schedule: Q01DX005 (ip), vehicle: saline with Tween-80
[9] = dose: 200.0 mg/kg/injection, schedule: Q01DX005 (ip), vehicle: saline with Tween-80
[10] = dose: 25.0 mg/kg/injection, schedule: Q01DX009 (ip), vehicle: saline
[11] = dose: 50.0 mg/kg/injection, schedule: Q01DX009 (ip), vehicle: saline
[12] = dose: 100.0 mg/kg/injection, schedule: Q01DX009 (ip), vehicle: saline with Tween-80
[13] = dose: 200.0 mg/kg/injection, schedule: Q01DX009 (ip), vehicle: saline with Tween-80
[14] = dose: 12.5 mg/kg/injection, schedule: Q01DX009 (ip), vehicle: Klucel (hydroxypropylcellulose) (HPC)
[15] = dose: 25.0 mg/kg/injection, schedule: Q01DX009 (ip), vehicle: Klucel (hydroxypropylcellulose) (HPC)
[16] = dose: 50.0 mg/kg/injection, schedule: Q01DX009 (ip), vehicle: Klucel (hydroxypropylcellulose) (HPC)
[17] = dose: 100.0 mg/kg/injection, schedule: Q01DX009 (ip), vehicle: Klucel (hydroxypropylcellulose) (HPC)
[18] = dose: 200.0 mg/kg/injection, schedule: Q01DX009 (ip), vehicle: Klucel (hydroxypropylcellulose) (HPC)
[19] = dose: 100.0 mg/kg/injection, schedule: Q01DX009 (ip), vehicle: saline
[20] = dose: 200.0 mg/kg/injection, schedule: Q01DX009 (ip), vehicle: saline
[21] = dose: 50.0 mg/kg/injection, schedule: Q01DX005 (ip), vehicle: saline

Compound: Cc1c2ccccc2c(C)c2c1ccc1ccccc12
- T/C (dose: 3.13 mg/kg/injection, schedule: Q01DX009 (ip), vehicle: saline with Tween-80): 167 % of control
- T/C (dose: 4.0 mg/kg/injection, schedule: Q01DX009 (ip), vehicle: saline with Tween-80): 163 % of control
- T/C (dose: 6.2 mg/kg/injection, schedule: Q01DX009 (ip), vehicle: saline with Tween-80): 163 % of control
- T/C [1]: 180 % of control and 184 % of control
- T/C (dose: 9.3 mg/kg/injection, schedule: Q01DX009 (ip), vehicle: saline with Tween-80): 109 % of control
- T/C [2]: 175 % of control
- T/C (dose: 12.5 mg/kg/injection, schedule: Q04DX003 (ip), vehicle: other): 104 % of control
- T/C [3]: 98 % of control and 100 % of control and 116 % of control
- T/C (dose: 25.0 mg/kg/injection, schedule: Q04DX003 (ip), vehicle: other): 116 % of control
- T/C [4]: 100 % of control
- T/C (dose: 50.0 mg/kg/injection, schedule: Q04DX003 (ip), vehicle: other): 116 % of control
- T/C (dose: 100.0 mg/kg/injection, schedule: Q04DX003 (ip), vehicle: other): 111 % of control

Compound: Cc1nn(C)c(=O)c(N)c1-c1cc(-c2ccc(Cl)cc2)n[nH]1
- T/C [5]: 89 % of control
- T/C [6]: 88 % of control

Compound: CN(C)CC1C(=O)C2CCC1C2 (stereo unspecified)
- T/C [7]: 98 % of control
- T/C [8]: 98 % of control
- T/C [9]: 108 % of control

Compound: COc1ccc(C#N)cc1OC
- T/C (dose: 6.25 mg/kg/injection, schedule: Q01DX009 (ip), vehicle: saline): 99 % of control
- T/C (dose: 12.5 mg/kg/injection, schedule: Q01DX009 (ip), vehicle: saline): 108 % of control
- T/C [10]: 92 % of control
- T/C [11]: 92 % of control

Compound: COc1ccc(Cc2cc(C(C)(C)C)cc(C(C)(C)C)c2OC)cc1
- T/C (dose: 50.0 mg/kg/injection, schedule: Q01DX005 (ip), vehicle: distilled water + alcohol): 99 % of control
- T/C (dose: 100.0 mg/kg/injection, schedule: Q01DX005 (ip), vehicle: distilled water + alcohol): 96 % of control
- T/C (dose: 200.0 mg/kg/injection, schedule: Q01DX005 (ip), vehicle: distilled water + alcohol): 99 % of control

Compound: COc1ccc(-c2cc(-c3ccccc3)c(-c3ccccc3)nn2)cc1
- T/C [4]: 96 % of control
- T/C [12]: 101 % of control
- T/C [13]: 96 % of control

Compound: Cc1ccc(C(=O)[Se][Se]C(=O)c2ccc(C)cc2)cc1
- T/C [1]: 98 % of control
- T/C [2]: 117 % of control
- T/C [3]: 104 % of control and 112 % of control

Compound: O=c1[nH]nc(SCc2ccccc2)c2nncn12
- T/C [7]: 97 % of control
- T/C [8]: 92 % of control
- T/C [9]: 95 % of control

Compound: CCCCCCC1C/C(=C/N(C)C)C(=O)O1 (stereo unspecified)
- T/C (dose: 60.0 mg/kg/injection, schedule: Q01DX005 (ip), vehicle: Klucel (hydroxypropylcellulose) (HPC)): 92 % of control
- T/C (dose: 120.0 mg/kg/injection, schedule: Q01DX005 (ip), vehicle: Klucel (hydroxypropylcellulose) (HPC)): 104 % of control
- T/C (dose: 240.0 mg/kg/injection, schedule: Q01DX005 (ip), vehicle: Klucel (hydroxypropylcellulose) (HPC)): 92 % of control

Compound: C1=NC(c2ccccn2)=NNC(c2ccccn2)=C1c1ccccc1
- T/C [14]: 97 % of control
- T/C [15]: 98 % of control
- T/C [16]: 93 % of control
- T/C [17]: 96 % of control
- T/C [18]: 93 % of control

Compound: CCOC(=O)/C(=C(/[S-])SC)[n+]1ccc(C)cc1
- T/C (dose: 100.0 mg/kg/injection, schedule: Q04DX002 (ip), vehicle: saline with Tween-80): 101 % of control
- T/C (dose: 200.0 mg/kg/injection, schedule: Q04DX002 (ip), vehicle: saline with Tween-80): 99 % of control

Compound: CCCCCCC[N+]1([O-])CCOCC1
- T/C [11]: 99 % of control
- T/C [19]: 100 % of control
- T/C [20]: 97 % of control

Compound: CCCCCC(CN(C)C)C(=O)/C=C/c1ccc(Br)cc1 (stereo unspecified)
- T/C (dose: 6.25 mg/kg/injection, schedule: Q01DX005 (ip), vehicle: saline): 100 % of control
- T/C (dose: 12.5 mg/kg/injection, schedule: Q01DX005 (ip), vehicle: saline): 110 % of control
- T/C (dose: 25.0 mg/kg/injection, schedule: Q01DX005 (ip), vehicle: saline): 107 % of control
- T/C [21]: 102 % of control

Compound: CCC(c1ccc(OC)cc1)C(NCC(=O)N/N=C/c1ccc(O)c(OC)c1)c1ccc(OC)cc1 (stereo unspecified)
- T/C (dose: 100.0 mg/kg/injection, schedule: Q01DX001 (ip), vehicle: saline with Tween-80): 107 % of control
- T/C (dose: 200.0 mg/kg/injection, schedule: Q01DX001 (ip), vehicle: saline with Tween-80): 107 % of control
- T/C (dose: 400.0 mg/kg/injection, schedule: Q01DX001 (ip), vehicle: saline with Tween-80): 101 % of control

Compound: NC(CC(=O)O)C(=O)NC(CC(=O)O)C(=O)O (stereo not drawn) (H-Asp-Asp-OH; configuration not given here)
- T/C [21]: 101 % of control
- T/C (dose: 100.0 mg/kg/injection, schedule: Q01DX005 (ip), vehicle: saline): 99 % of control
- T/C (dose: 200.0 mg/kg/injection, schedule: Q01DX005 (ip), vehicle: saline): 97 % of control

Compound: COc1ccc(C(O)Cc2ccccc2)cc1 (stereo unspecified)
- T/C (dose: 31.25 mg/kg/injection, schedule: Q01DX009 (ip), vehicle: saline + Tween-80 + alcohol): 93 % of control
- T/C (dose: 62.5 mg/kg/injection, schedule: Q01DX009 (ip), vehicle: saline + Tween-80 + alcohol): 91 % of control
- T/C (dose: 125.0 mg/kg/injection, schedule: Q01DX009 (ip), vehicle: saline + Tween-80 + alcohol): 91 % of control
- T/C (dose: 250.0 mg/kg/injection, schedule: Q01DX009 (ip), vehicle: saline + Tween-80 + alcohol): 89 % of control

Compound: O=c1cc[nH]c(=S)[nH]1.[Pd]
- T/C [10]: 89 % of control
- T/C [11]: 96 % of control
- T/C [19]: 91 % of control
- T/C [20]: 91 % of control

Compound: O=C(O)C(O)COc1nsnc1N1CCOCC1 (stereo unspecified)
- T/C [16]: 107 % of control
- T/C [17]: 102 % of control
- T/C [18]: 107 % of control

Compound: CCOC(=O)NNC(=O)Nc1ccccc1F
- T/C [5]: 108 % of control
- T/C [6]: 96 % of control
- T/C (dose: 240.0 mg/kg/injection, schedule: Q01DX005 (ip), vehicle: saline with Tween-80): 99 % of control

Compound: CN(C)P(=O)(N(C)C)N1CCCCCC1
- T/C [4]: 102 % of control
- T/C [12]: 106 % of control
- T/C [13]: 94 % of control

Compound: Cc1ccc(N=Nc2c(O)ccc3n[nH]nc23)cc1
- T/C [16]: 99 % of control
- T/C [17]: 101 % of control and 105 % of control
- T/C (dose: 100.0 mg/kg/injection, schedule: Q04DX003 (ip), vehicle: Klucel (hydroxypropylcellulose) (HPC)): 100 % of control
- T/C [18]: 99 % of control and 109 % of control
- T/C (dose: 200.0 mg/kg/injection, schedule: Q04DX003 (ip), vehicle: Klucel (hydroxypropylcellulose) (HPC)): 100 % of control
- T/C (dose: 400.0 mg/kg/injection, schedule: Q01DX009 (ip), vehicle: Klucel (hydroxypropylcellulose) (HPC)): 100 % of control and 109 % of control
- T/C (dose: 400.0 mg/kg/injection, schedule: Q04DX003 (ip), vehicle: Klucel (hydroxypropylcellulose) (HPC)): 93 % of control

Compound: COC12C(COC(=O)NCCO)C3=C(C(=O)C(C)=C(N)C3=O)N1CC1NC12 (stereo unspecified)
- T/C (dose: 3.12 mg/kg/injection, schedule: Q01DX009 (ip), vehicle: Klucel (hydroxypropylcellulose) (HPC)): 122 % of control
- T/C (dose: 3.13 mg/kg/injection, schedule: Q01DX009 (ip), vehicle: Klucel (hydroxypropylcellulose) (HPC)): 169 % of control
- T/C (dose: 4.5 mg/kg/injection, schedule: Q01DX009 (ip), vehicle: Klucel (hydroxypropylcellulose) (HPC)): 155 % of control
- T/C (dose: 6.25 mg/kg/injection, schedule: Q01DX009 (ip), vehicle: Klucel (hydroxypropylcellulose) (HPC)): 163 % of control and 175 % of control
- T/C (dose: 9.0 mg/kg/injection, schedule: Q01DX009 (ip), vehicle: Klucel (hydroxypropylcellulose) (HPC)): 190 % of control
- T/C [14]: 160 % of control and 212 % of control
- T/C (dose: 18.0 mg/kg/injection, schedule: Q01DX009 (ip), vehicle: Klucel (hydroxypropylcellulose) (HPC)): 192 % of control and 201 % of control and 238 % of control
- T/C [15]: 211 % of control and 214 % of control
- T/C (dose: 28.0 mg/kg/injection, schedule: Q01DX009 (ip), vehicle: Klucel (hydroxypropylcellulose) (HPC)): 181 % of control and 182 % of control
- T/C (dose: 43.0 mg/kg/injection, schedule: Q01DX009 (ip), vehicle: Klucel (hydroxypropylcellulose) (HPC)): 92 % of control
- T/C [16]: 104 % of control
